The source of these data is PubChem BioAssay (NCI).

Common to all, as to assay: growth of human tumour cells (NCI), 48 h
Assay [1] relates to M14 melanoma.
The test system of assay [2] is NCI-H23 lung.
In assay [3] the test system is UACC-257 melanoma.
Assay [4] relates to U251 CNS.
Assay [5] relates to SF-295 CNS.
Assay [6] relates to IGROV1 ovarian.
In assay [7] the test system is HOP-62 NSCLC.
The subject of assay [8] is NCI-H522 lung.
Assay [9] has as its system HCT-116 colon.
Assay [10] has as its system EKVX NSCLC.
The test system of assay [11] is HCT-15 colon.
Assay [12] deals with OVCAR-4 ovarian.
In assay [13] the test system is CCRF-CEM leukemia.
In assay [14] the test system is LOX IMVI melanoma.
Assay [15] has as its system HOP-92 NSCLC.
The test system of assay [16] is NCI-H460 lung.
For assay [17], the system named is SF-539 CNS.
The test system of assay [18] is HCC-2998 colon.

Each structure is given as a SMILES string.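 1) Cells in 96-well plates. 2) Compound, 48 h, 5 concentrations. 3) Linear interpolation between surrounding doses. 4) Unreached endpoint = highest concentration. TGI: total growth inhibition.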

As to `O=C1NC(=O)C(C(c2ccc(Cl)cc2)C2C(=O)NC(=O)NC2=O)C(=O)N1`, the TGI in assay [1], in assay [2], in assay [3], in assay [4], in assay [5] and in [6] was more than 100 µM in each case. Besides, the TGI in assay [7], in [8], in [9], in assay [10], in assay [11] and in assay [12] was more than 100 µM each time. Also, the TGI in assay [13], in [14], in assay [15] and in assay [16] was more than 100 µM throughout.
Turning to `CC(=O)O[C@H]1CC[C@@]2(C)C(=CC[C@@H]3[C@@H]2CC[C@]2(C)C(=N/O)/C(=C/c4ccc([N+](=O)[O-])cc4)C[C@@H]32)C1`, the TGI was 47.7 µM in assay [1]; 13.2 µM in [2]; more than 100 µM in [17]; 1.55 µM in assay [3]; 20.7 µM in [5]; 55.8 µM in assay [6]. Besides, the TGI in assay [7] is more than 100 µM; in assay [8] it was 8.94 µM; in assay [9] it was more than 100 µM; in assay [11] it was more than 100 µM; in assay [12] it was more than 100 µM; in assay [13] it was more than 100 µM. In addition, the values for the TGI in [14], in assay [15] and in [16] were more than 100 µM, 62 µM and more than 100 µM, respectively.
For the compound `Cc1cc2c(cc1C)[n+](=O)c(N1CCN(c3ccc([N+](=O)[O-])cc3)CC1)c(C#N)n2[O-]`, the TGI was more than 100 µM in assay [1]; more than 100 µM in assay [2]; more than 100 µM in assay [3]; 80.9 µM in assay [4]; 37.8 µM in [5]; more than 100 µM in assay [6]. The TGI was 31.7 µM in assay [7]; 88.3 µM in assay [8]; more than 100 µM in assay [9]; more than 100 µM in assay [10]; more than 100 µM in assay [18]; more than 100 µM in assay [11]. The TGI was more than 100 µM in assay [12]; more than 100 µM in [13]; more than 100 µM in [14]; 56.7 µM in assay [15]; 70 µM in assay [16].
Take `COC(=O)C1C2C=CC(C2)N1S(=O)(=O)c1ccccc1` (stereo not given): the TGI in assay [1], in assay [2], in assay [17], in assay [4], in assay [5] and in assay [7] was more than 100 µM throughout. The TGI in assay [8], in assay [9], in assay [11], in assay [12], in [15] and in assay [16] was more than 100 µM each time.
Consider `CC1(C)C2CCC3(OCCO3)C1C1OC12` (stereo not given), for which the TGI in [1], in [2], in assay [17], in assay [3], in assay [4] and in assay [5] was more than 100 µM each time. The TGI in assay [8], in [9], in assay [10], in [11], in assay [12] and in [13] was more than 100 µM each time. In addition, the TGI in assay [14], in assay [15] and in assay [16] was more than 100 µM throughout.
Turning to `Cc1ccc(/C(=C/C=C(C#N)C#N)Sc2cc(Cl)ccc2Cl)cc1`, the TGI worked out at 16.4 µM in assay [1]; 16.1 µM in assay [2]; 12.4 µM in assay [17]; 7.8 µM in assay [3]; 15 µM in assay [4]; 16 µM in [5]. Moreover, the TGI in assay [6] was 32.6 µM; in [7], more than 100 µM; in assay [8], 22.1 µM; in assay [9], 5.06 µM; in [10] it was 46.6 µM; in [11], 12.5 µM. Further, the TGI is 37.7 µM in [12], 3.33 µM in assay [14] and more than 100 µM in [16].
On to `CC(=O)[O-].CC(=O)[O-].[NH2-].[Pt+2].c1ccncc1`, for which the TGI was more than 100 µM in assay [1]; more than 100 µM in [2]; 55.1 µM in [17]; more than 100 µM in assay [4]; more than 100 µM in [5]; more than 100 µM in assay [6]. Further, the TGI is more than 100 µM in assay [7]; 44.2 µM in [8]; more than 100 µM in assay [9]; more than 100 µM in assay [18]; more than 100 µM in assay [11]; more than 100 µM in assay [12]. For the same compound, the TGI in assay [13], in [14], in assay [15] and in [16] was more than 100 µM in each case.
With `CC(C)[Si](OC1=C(C(=O)N(C)c2ccccc2Cl)CCC1)(C(C)C)C(C)C`, the TGI turned out to be 35.7 µM in assay [1]; 29.8 µM in assay [2]; 39.5 µM in assay [17]; 43.4 µM in assay [3]; 31.1 µM in assay [4]; 27.6 µM in [5]. Besides, the TGI stood at 33 µM in assay [6]; 32.3 µM in assay [7]; 28.6 µM in assay [8]; 37 µM in [9]; 31.1 µM in assay [10]; 30.6 µM in assay [11]. Besides, the TGI in [12] was determined as 38.1 µM; in assay [14], 33.7 µM; in assay [15], 32.7 µM; in assay [16] it was 62.1 µM.
For `Cc1ccc(-n2c(Cn3nnc(-c4cccnc4)n3)nn(C3OC(COC(=O)c4ccccc4)C(OC(=O)c4ccccc4)C3OC(=O)c3ccccc3)c2=S)cc1` (stereo not given), the TGI in assay [1], in assay [2], in assay [17], in assay [3], in [4] and in [5] was more than 100 µM each time. Also, the TGI in [6], in assay [7], in assay [8], in assay [9], in [10] and in assay [18] was more than 100 µM in each case. In addition, the TGI in assay [11], in [12], in [13], in assay [14] and in assay [16] was more than 100 µM in each case.
Turning to `CSc1nc2c(N)ncnc2n1C`, the TGI in assay [1], in assay [17], in [3], in assay [4], in assay [5] and in assay [6] was more than 100 µM in each case. Moreover, the TGI in [7], in assay [8], in assay [9], in assay [10], in assay [18] and in [11] was more than 100 µM each time. Also, the TGI in assay [12], in [13], in assay [14] and in assay [16] was more than 100 µM each time.
Take `CC(C)N=C(NC#N)NS(=O)(=O)c1cnccc1Nc1ccc(Cl)cc1`: the TGI in [1], in assay [2], in [3], in assay [4], in [5] and in [6] was more than 100 µM each time. In addition, the TGI in [7], in assay [8], in assay [9], in [10], in assay [18] and in [11] was more than 100 µM in each case. Further, the TGI in [12] and in assay [13] was more than 100 µM throughout.
For `Cc1ccc2c(=O)c(-c3nnc(N)s3)c[nH]c2n1`, the TGI in assay [1], in assay [2], in assay [3], in assay [4], in [5] and in assay [6] was more than 100 µM each time. Further, the TGI in assay [7], in assay [8], in [9], in assay [10], in [11] and in assay [12] was more than 100 µM in each case. Besides, the TGI in assay [13], in [14] and in assay [16] was more than 100 µM in each case.
As to `Cc1ccc2[nH]c3[nH]c(=O)[nH]c(=O)c3c2c1`, the TGI in [1], in assay [2], in assay [17], in [3], in assay [5] and in assay [6] was more than 100 µM each time. Further, the TGI in assay [7], in assay [8], in assay [9], in assay [10], in assay [11] and in assay [13] was more than 100 µM each time. Further, the TGI in [14] and in [15] was more than 100 µM throughout.
In the case of `CCN1CC2=C(NC(=S)NC2c2cc(OC)c(OC)c(OC)c2)/C(=C/c2cc(OC)c(OC)c(OC)c2)C1` (stereo not given), the TGI in [1], in [2], in assay [3], in [4], in [5] and in [6] was more than 100 µM in each case. In addition, the TGI was more than 100 µM in assay [7]; 55.9 µM in assay [8]; more than 100 µM in assay [9]; more than 100 µM in assay [10]; 88.8 µM in assay [18]; more than 100 µM in [11]. The TGI is more than 100 µM in [12]; more than 100 µM in [13]; more than 100 µM in assay [14]; 60.4 µM in [15]; more than 100 µM in [16].
